Consider 20 compounds from ChEMBL document CHEMBL6087467, “Probing the Histamine H1 Receptor Binding Site to Explore Ligand Binding Kinetics” (J Med Chem, 2025).

Experiment [1] concerns the target T1, Histamine H1 receptor (Homo sapiens, UniProt P35367). To be noted: HEK293T, time 4.0 hrs.
In experiment [2] the target is T1, Histamine H1 receptor. Format: cell-based. As to conditions: hek293t.
For experiment [3], the target named is T1, Histamine H1 receptor. As to conditions: HEK293T, time 4.0 hrs. The source holds these as a separate data set.
Experiment [4] concerns the target T1, Histamine H1 receptor. Description: biochemical. Format: cell-based, HEK293T.
Description: Displacement of [3H]-mepyramine from human histamine H1 receptor expressed in HEK293T cells assessed as inhibition constant incubated for 4 hrs by competitive binding assay
Experiment [5] deals with T1, Histamine H1 receptor. Description: biochemical. It is filed as cell-based, HEK293T. This is another data set of the same source.
Description: Displacement of [3H]-mepyramine from human histamine H1 receptor expressed in HEK293T cells assessed as dissociation constant incubated for 4 hrs by competitive binding assay

T1 sequence (P35367 whole entry): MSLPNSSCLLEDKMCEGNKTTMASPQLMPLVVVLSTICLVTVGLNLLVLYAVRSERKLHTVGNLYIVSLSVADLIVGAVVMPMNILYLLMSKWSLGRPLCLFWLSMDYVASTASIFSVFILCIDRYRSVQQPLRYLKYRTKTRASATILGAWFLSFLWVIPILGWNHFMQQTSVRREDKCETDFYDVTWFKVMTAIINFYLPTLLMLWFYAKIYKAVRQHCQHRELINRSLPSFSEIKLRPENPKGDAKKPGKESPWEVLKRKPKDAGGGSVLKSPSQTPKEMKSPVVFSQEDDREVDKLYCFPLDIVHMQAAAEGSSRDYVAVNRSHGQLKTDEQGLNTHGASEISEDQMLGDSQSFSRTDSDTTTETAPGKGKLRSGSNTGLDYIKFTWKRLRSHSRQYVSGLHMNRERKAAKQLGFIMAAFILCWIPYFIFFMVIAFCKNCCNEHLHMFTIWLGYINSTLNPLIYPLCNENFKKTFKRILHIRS

Take `CN1CCC(Oc2c(/C=C/C(=O)O)cccc2Cc2ccccc2)CC1`: the Ka on Histamine H1 receptor [1] is 1.6 10^6/M/min. For the same compound, the “Dissociation rate constant (koff)” value on Histamine H1 receptor [2] came out at 0.000917 s⁻¹. The Retention time at Histamine H1 receptor [3] was determined as 3 min.
Consider `O=C(O)CCCCCN1CCC(Oc2ccccc2Cc2ccccc2)CC1`, for which, at Histamine H1 receptor [1], the Ka is 4 10^6/M/min. The “Dissociation rate constant (koff)” value on Histamine H1 receptor [2] worked out at 0.001 s⁻¹. The same compound came in with a Retention time on Histamine H1 receptor [3] of 17 min.
`Cc1ccc(/C(=C\CN2CCCC2)c2ccccn2)cc1` [TRIPROLIDINE]: the Ka at Histamine H1 receptor [1] was 36 10^6/M/min.
For the compound `O=C(O)COCCN1CCN([C@H](c2ccccc2)c2ccc(Cl)cc2)CC1`, the Ka on Histamine H1 receptor [1] is 1.4 10^6/M/min.
Turning to `CN1CCC(Oc2cc(CO)ccc2Cc2ccccc2)CC1`, at Histamine H1 receptor [1], the Ka was 98 10^6/M/min. Also, at Histamine H1 receptor [2], the “Dissociation rate constant (koff)” value is 0.00417 s⁻¹. The compound also came in with a Retention time at Histamine H1 receptor [3] of 4 min.
Regarding `O=C(O)CCCCCCN1CCC(Oc2ccccc2Cc2ccccc2)CC1`, on Histamine H1 receptor [1], the Ka is 2.5 10^6/M/min. Besides, the “Dissociation rate constant (koff)” value on Histamine H1 receptor [2] was 0.00127 s⁻¹. Moreover, on Histamine H1 receptor [3], the Retention time amounted to 13 min.
As for `O=C(O)CCCCN1CCC(Oc2ccccc2Cc2ccccc2)CC1`, at Histamine H1 receptor [1], the Ka was 3.2 10^6/M/min. Also, on Histamine H1 receptor [2], the “Dissociation rate constant (koff)” value was 0.00075 s⁻¹. Moreover, on Histamine H1 receptor [3], the Retention time was found to be 23 min.
In the case of `O=C(O)CCN1CCC(Oc2ccccc2Cc2ccccc2)CC1`, the Ka at Histamine H1 receptor [1] was 2.9 10^6/M/min. The “Dissociation rate constant (koff)” value at Histamine H1 receptor [2] came to 0.00183 s⁻¹. For the same compound, the Retention time at Histamine H1 receptor [3] is 9 min.
As to `CN(C)CC/C=C1/c2ccccc2COc2ccc(CC(=O)O)cc21`, the Ka at Histamine H1 receptor [1] is 1.9 10^6/M/min. At Histamine H1 receptor [3], the Retention time was found to be 190 min.
As to `CN1CCC(Oc2c(Cc3ccccc3)cccc2C(=O)O)CC1`, on Histamine H1 receptor [1], the Ka is 0.5 10^6/M/min. Further, the “Dissociation rate constant (koff)” value on Histamine H1 receptor [2] is 0.004 s⁻¹. In addition, at Histamine H1 receptor [3], the Retention time came to 4.2 min.
For orientation: Ki means the dissociation constant of the complex between target and ligand, obtained from inhibition or displacement. Higher therefore signals a looser hold on the target. For orientation: Kd means the concentration at which binding is half-saturated. A low value points to a tighter complex. For `CC(=O)Cc1cccc(Cc2ccccc2)c1OC1CCN(C)CC1`, on Histamine H1 receptor [1], the Ka is 2.08 10^6/M/min. Also, at Histamine H1 receptor [2], the “Dissociation rate constant (koff)” value amounted to 0.00138 s⁻¹. The same compound showed a Ki at Histamine H1 receptor [4] of 39.8 nM. Further, at Histamine H1 receptor [5], the Kd is 39.8 nM. Further, on Histamine H1 receptor [3], the Retention time is 12.1 min.
For the compound `CN1CCC(Oc2cc(CC(=O)O)ccc2Cc2ccccc2)CC1`, on Histamine H1 receptor [1], the Ka was 1.3 10^6/M/min. For the same compound, the “Dissociation rate constant (koff)” value on Histamine H1 receptor [2] came out at 0.00283 s⁻¹. On Histamine H1 receptor [3], this compound came in with a Retention time of 6 min.
As for `O=C(O)CCCN1CCC(Oc2ccccc2Cc2ccccc2)CC1`, the Ka on Histamine H1 receptor [1] is 2.9 10^6/M/min. In addition, on Histamine H1 receptor [2], the “Dissociation rate constant (koff)” value amounted to 0.0017 s⁻¹. In addition, the Retention time on Histamine H1 receptor [3] came to 10 min.
Consider `CN1CCC(Oc2cc(C(=O)O)ccc2Cc2ccccc2)CC1`, for which the Ka on Histamine H1 receptor [1] was 0.06 10^6/M/min. For the same compound, on Histamine H1 receptor [2], the “Dissociation rate constant (koff)” value is 0.017 s⁻¹. The same compound came in with a Retention time at Histamine H1 receptor [3] of 1.2 min.
As for `CN1CCC(Oc2cc(/C=C/C(=O)O)ccc2Cc2ccccc2)CC1`, the Ka at Histamine H1 receptor [1] is 0.62 10^6/M/min. Moreover, the “Dissociation rate constant (koff)” value on Histamine H1 receptor [2] turned out to be 0.000917 s⁻¹. Further, the Retention time on Histamine H1 receptor [3] was determined as 18 min.
Turning to `CN1CCC(Oc2c(CO)cccc2Cc2ccccc2)CC1`, at Histamine H1 receptor [1], the Ka is 27 10^6/M/min. On Histamine H1 receptor [2], the “Dissociation rate constant (koff)” value came out at 0.0122 s⁻¹. The Retention time at Histamine H1 receptor [3] stood at 1.4 min.
`c1ccc(Cc2ccccc2OC2CCN(CCCCc3nnn[nH]3)CC2)cc1`: the Ka at Histamine H1 receptor [1] is 3.7 10^6/M/min. The “Dissociation rate constant (koff)” value on Histamine H1 receptor [2] stood at 0.00035 s⁻¹. In addition, the Retention time at Histamine H1 receptor [3] amounted to 48 min.
Regarding `O=C(O)CCCCCCCN1CCC(Oc2ccccc2Cc2ccccc2)CC1`, the Ka at Histamine H1 receptor [1] was 2.37 10^6/M/min. For the same compound, at Histamine H1 receptor [2], the “Dissociation rate constant (koff)” value was determined as 0.00115 s⁻¹. The Retention time at Histamine H1 receptor [3] was found to be 15 min.
Regarding `CN1CCC(Oc2ccccc2Cc2ccccc2)CC1`, the Ka at Histamine H1 receptor [1] is 160 10^6/M/min. The Retention time on Histamine H1 receptor [3] worked out at 2 min.
On to `COc1ccc(Cc2ccccc2)c(OC2CCN(C)CC2)c1`, for which the Ka on Histamine H1 receptor [1] is 60 10^6/M/min. The “Dissociation rate constant (koff)” value on Histamine H1 receptor [2] was 0.0083 s⁻¹. Further, at Histamine H1 receptor [3], the Retention time was determined as 2 min.
